Laboratory results: patent EP3046573B1, “AMYLIN ANALOGUES” (Zealand Pharma A/S, priority 2013, dated 2015)
Read-outs that look alike come from different tables or passages of the source. Numbered stars: 1 amine (or outer) side, 2 acyl side, 3 side chain; on linkers, the order of the positions; unused ones are H or OH. Bridge positions count the residues as written; N and C are the ends. Square brackets hold non-standard residues; d marks the D form. Peptide text beside a SMILES is read from it. * marks the point of attachment. C20 diacid = O=C(O)CCCCCCCCCCCCCCCCCCC(=O)*; γGlu = O=C(O)[C@H](CCC(=O)[*:2])N[*:1]; NMeI = CC[C@H](C)[C@H](NC)C(=O)O; Sar = CNCC(=O)O

Assays:
[1] = Solubility assessment (turbidity absorbance at 325 nm); type: physicochemical; settings: stock 2 mg/ml diluted 1:1, ambient temperature (typically 25°C), n=1; for Solubility, Acetate buffer pH 4: 100 mM acetate buffer pH 4.0; for Solubility, Acetate buffer pH 5: 100 mM acetate buffer pH 5.0; for Solubility, Histidine buffer pH 6: 100 mM histidine buffer pH 6.0; for Solubility, Histidine buffer pH 7: 100 mM histidine buffer pH 7.0; for Solubility, Phosphate buffer pH 6: 100 mM phosphate buffer pH 6.0; for Solubility, Phosphate buffer pH 7: 100 mM phosphate buffer pH 7.0; for Solubility, Phosphate buffer pH 7.5: 100 mM phosphate buffer pH7.5
Procedure, shortened: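 Peptide stock (2 mg/ml) in water acidified to pH 2.5 with HCl was diluted 1:1 into 100 mM acetate (pH 4.0, 5.0), histidine (pH 6.0, 7.0) or phosphate (pH 6.0, 7.0, 7.5) buffer. A280 and A325 were read at about 25°C, n=1. A325 ≤ 0.02 meant solubility ≥ 1 mg/ml.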

[2] = molecular target: T1, human amylin receptor 3 (hAMYR3) consisting of hCTR2 co-expressed with human Receptor Activity Modifying Protein 3 (hRAMP3) (Homo sapiens, UniProt O60896+P30988); experiment: hAMYR3 assay: induction of cAMP (AlphaScreen cAMP Assay kit) in COS7 cells expressing hAMYR3; type: cell-based
T1 construct: expressed in transfected cells
T1 sequence (P30988 25-474): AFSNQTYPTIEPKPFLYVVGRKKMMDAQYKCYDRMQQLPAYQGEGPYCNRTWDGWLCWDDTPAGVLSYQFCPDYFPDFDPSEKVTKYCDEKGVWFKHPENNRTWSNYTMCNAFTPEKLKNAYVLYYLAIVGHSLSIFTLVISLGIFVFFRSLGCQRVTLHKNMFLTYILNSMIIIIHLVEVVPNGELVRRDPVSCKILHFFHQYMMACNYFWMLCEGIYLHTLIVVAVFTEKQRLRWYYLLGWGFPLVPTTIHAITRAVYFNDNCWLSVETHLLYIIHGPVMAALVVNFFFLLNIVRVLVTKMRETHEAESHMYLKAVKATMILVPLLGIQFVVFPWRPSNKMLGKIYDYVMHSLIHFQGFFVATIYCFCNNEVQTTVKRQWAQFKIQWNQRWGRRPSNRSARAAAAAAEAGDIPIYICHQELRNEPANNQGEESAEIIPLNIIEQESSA
T1 sequence (O60896 24-148 partner): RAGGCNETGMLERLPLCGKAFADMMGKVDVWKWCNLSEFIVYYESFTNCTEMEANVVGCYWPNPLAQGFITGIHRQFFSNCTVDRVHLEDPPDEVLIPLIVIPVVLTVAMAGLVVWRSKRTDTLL
Procedure, shortened: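 Stable COS7 clone co-expressing hCTR2 and hRAMP3, stimulated 15 min at 37° C with increasing peptide in Tyrode buffer pH 7.4 with 100 µM IBMX and 0.1% casein. cAMP measured by AlphaScreen after lysis; EC50 and % efficacy versus pramlintide from 4PL fit.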

[3] = molecular target: T2, human calcitonin receptor (hCTR2) (Homo sapiens, UniProt P30988); experiment: hCTR2 assay: induction of cAMP (AlphaScreen cAMP Assay kit) in COS7 cells expressing hCTR2; type: cell-based
T2 construct: expressed in transfected cells
T2 sequence (P30988 25-474): T1 sequence (P30988 25-474)
Procedure, shortened: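 Stable hCTR2 clone in RAMP-naive COS7 cells; peptides titrated in Tyrode buffer (pH 7.4) with 100 µM IBMX, 0.1% casein, 15 min at 37° C. cAMP read by AlphaScreen after lysis; EC50 and efficacy relative to pramlintide from 4PL fit.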

[4] = cAMP induction in COS7 cells expressing hAMYR3, average of a minimum of 3 determinations, read-out: hAMY R3 EC50
[5] = cAMP induction in COS7 cells expressing hCTR2, average of a minimum of 3 determinations, read-out: hCTR2 EC50

CC[C@H](C)[C@@H](C(=O)N[C@@H](CC(C)C)C(=O)N[C@@H](CO)C(=O)N[C@@H](CO)C(=O)N[C@H](C(=O)N[C@@H](CC(N)=O)C(=O)N[C@H](C(=O)NCC(=O)N[C@@H](CO)C(=O)N[C@@H](CC(N)=O)C(=O)N[C@H](C(=O)N(C)[C@H](C(N)=O)[C@@H](C)CC)[C@@H](C)O)C(C)C)[C@@H](C)O)N(C)C(=O)[C@H](C)NC(=O)CN(C)C(=O)[C@H](Cc1ccccc1)NC(=O)[C@H](CC(N)=O)NC(=O)[C@H](CC(N)=O)NC(=O)[C@H](CO)NC(=O)[C@H](CO)NC(=O)[C@H](CCCNC(=N)N)NC(=O)[C@H](Cc1c[nH]cn1)NC(=O)[C@H](CC(C)C)NC(=O)[C@H](Cc1ccccc1)NC(=O)[C@H](CCC(=O)O)NC(=O)[C@H](C)NC(=O)[C@H](CC(C)C)NC(=O)[C@H](CCCNC(=N)N)NC(=O)[C@H](CCC(N)=O)NC(=O)[C@@H](NC(=O)[C@H](C)NC(=O)[C@@H]1CSSC[C@H](NC(=O)[C@H](CCCNC(=N)N)NC(=O)CC[C@H](NC(=O)CCCCCCCCCCCCCCCCCCC(=O)O)C(=O)O)C(=O)N[C@@H](CC(N)=O)C(=O)N[C@@H]([C@@H](C)O)C(=O)N[C@@H](C)C(=O)N[C@@H]([C@@H](C)O)C(=O)N1)[C@@H](C)O [Compound 103, [19CD]-isoGlu-RC()NTATC()ATQRLAEFLHRSSNNF-Gly(Me)-A-Ile(Me)-LSSTNVGSNT-Ile(Me)-NH2H2] ({C20 diacid-γGlu}-RCNTATCATQRLAEFLHRSSNNF[Sar]A[NMeI]LSSTNVGSNT[NMeI]-NH2; disulfide 2-7)
Solubility, Acetate buffer pH 4 [1]: SS (SS indicates solubility ≥ 1mg/ml) | Solubility, Acetate buffer pH 5 [1]: SS (SS indicates solubility ≥ 1mg/ml) | Solubility, Histidine buffer pH 6 [1]: SS (SS indicates solubility ≥ 1mg/ml) | Solubility, Histidine buffer pH 7 [1]: SS (SS indicates solubility ≥ 1mg/ml) | Solubility, Phosphate buffer pH 6 [1]: II (II indicates solubility ≤ 1 mg/ml) | Solubility, Phosphate buffer pH 7 [1]: SS (SS indicates solubility ≥ 1mg/ml) | Solubility, Phosphate buffer pH 7.5 [1]: SS (SS indicates solubility ≥ 1mg/ml) | EC50 [2]: 5.1 nM | EC50 [3]: 0.65 nM

CC[C@H](C)[C@@H](C(=O)N[C@@H](CC(C)C)C(=O)N[C@@H](CO)C(=O)N[C@@H](CO)C(=O)N[C@H](C(=O)N[C@@H](CC(N)=O)C(=O)N[C@H](C(=O)NCC(=O)N[C@@H](CO)C(=O)N[C@@H](CC(N)=O)C(=O)N[C@H](C(=O)N[C@@H](Cc1ccccc1)C(N)=O)[C@@H](C)O)C(C)C)[C@@H](C)O)N(C)C(=O)[C@H](C)NC(=O)CN(C)C(=O)[C@H](Cc1ccccc1)NC(=O)[C@H](CC(N)=O)NC(=O)[C@H](CC(N)=O)NC(=O)[C@H](CO)NC(=O)[C@H](CO)NC(=O)[C@H](CCCNC(=N)N)NC(=O)[C@H](Cc1c[nH]cn1)NC(=O)[C@H](CC(C)C)NC(=O)[C@H](Cc1ccccc1)NC(=O)[C@H](CCC(=O)O)NC(=O)[C@H](C)NC(=O)[C@H](CC(C)C)NC(=O)[C@H](CCCNC(=N)N)NC(=O)[C@H](CCC(N)=O)NC(=O)[C@@H](NC(=O)[C@H](C)NC(=O)[C@@H]1CSSC[C@H](NC(=O)[C@H](CCCNC(=N)N)NC(=O)CC[C@H](NC(=O)CCCCCCCCCCCCCCCCCCC(=O)O)C(=O)O)C(=O)N[C@@H](CC(N)=O)C(=O)N[C@@H]([C@@H](C)O)C(=O)N[C@@H](C)C(=O)N[C@@H]([C@@H](C)O)C(=O)N1)[C@@H](C)O [Compound 115, [19CD]-isoGlu-RC()NTATC()ATQRLAEFLHRSSNNF-Gly(Me)-A-Ile(Me)-LSSTNVGSNTF-NH2] ({C20 diacid-γGlu}-RCNTATCATQRLAEFLHRSSNNF[Sar]A[NMeI]LSSTNVGSNTF-NH2; disulfide 2-7)
Solubility, Acetate buffer pH 4 [1]: SS (SS indicates solubility ≥ 1mg/ml) | Solubility, Acetate buffer pH 5 [1]: SS (SS indicates solubility ≥ 1mg/ml) | Solubility, Histidine buffer pH 6 [1]: SS (SS indicates solubility ≥ 1mg/ml) | Solubility, Histidine buffer pH 7 [1]: II (II indicates solubility ≤ 1 mg/ml) | Solubility, Phosphate buffer pH 6 [1]: II (II indicates solubility ≤ 1 mg/ml) | Solubility, Phosphate buffer pH 7 [1]: SS (SS indicates solubility ≥ 1mg/ml) | Solubility, Phosphate buffer pH 7.5 [1]: II (II indicates solubility ≤ 1 mg/ml) | EC50 [2]: 0.37 nM | EC50 [3]: 0.47 nM

CC[C@H](C)[C@@H](C(=O)N[C@@H](CC(C)C)C(=O)N[C@@H](CO)C(=O)N[C@@H](CO)C(=O)N[C@H](C(=O)N[C@@H](CCC(=O)O)C(=O)N[C@H](C(=O)NCC(=O)N[C@@H](CO)C(=O)N[C@@H](CCC(=O)O)C(=O)N[C@H](C(=O)N1CCC[C@H]1C(N)=O)[C@@H](C)O)C(C)C)[C@@H](C)O)N(C)C(=O)[C@H](C)NC(=O)CN(C)C(=O)[C@H](Cc1ccccc1)NC(=O)[C@H](CO)NC(=O)[C@H](CO)NC(=O)[C@H](CO)NC(=O)[C@H](CO)NC(=O)[C@H](CCCNC(=N)N)NC(=O)[C@H](Cc1c[nH]cn1)NC(=O)[C@H](CC(C)C)NC(=O)[C@H](Cc1ccccc1)NC(=O)[C@H](CCC(=O)O)NC(=O)[C@H](C)NC(=O)[C@H](CC(C)C)NC(=O)[C@H](CCCNC(=N)N)NC(=O)[C@H](CC(=O)O)NC(=O)[C@@H](NC(=O)[C@H](C)NC(=O)[C@@H]1CSSC[C@H](NC(=O)[C@H](CCCNC(=N)N)NC(=O)CC[C@H](NC(=O)CCCCCCCCCCCCCCCCCCC(=O)O)C(=O)O)C(=O)N2CCC[C@H]2C(=O)N[C@@H]([C@@H](C)O)C(=O)N[C@@H](C)C(=O)N[C@@H]([C@@H](C)O)C(=O)N1)[C@@H](C)O [Compound 151, [19CD]-isoGlu-RC()PTATC()ATDRLAEFLHRSSSSF-Gly(Me)-A-Ile(Me)-LSSTEVGSETP-NH2] ({C20 diacid-γGlu}-RCPTATCATDRLAEFLHRSSSSF[Sar]A[NMeI]LSSTEVGSETP-NH2; disulfide 2-7)
Solubility, Acetate buffer pH 4 [1]: SS (SS indicates solubility ≥ 1mg/ml) | Solubility, Acetate buffer pH 5 [1]: SS (SS indicates solubility ≥ 1mg/ml) | Solubility, Histidine buffer pH 6 [1]: SS (SS indicates solubility ≥ 1mg/ml) | Solubility, Histidine buffer pH 7 [1]: SS (SS indicates solubility ≥ 1mg/ml) | Solubility, Phosphate buffer pH 6 [1]: SS (SS indicates solubility ≥ 1mg/ml) | Solubility, Phosphate buffer pH 7 [1]: SS (SS indicates solubility ≥ 1mg/ml) | Solubility, Phosphate buffer pH 7.5 [1]: SS (SS indicates solubility ≥ 1mg/ml) | EC50 [2, 4]: 0.11 nM | EC50 [3, 5]: 0.066 nM

CC[C@H](C)[C@@H](C(=O)N[C@@H](CC(C)C)C(=O)N[C@@H](CO)C(=O)N[C@@H](CO)C(=O)N[C@H](C(=O)N[C@@H](CCC(=O)O)C(=O)N[C@H](C(=O)NCC(=O)N[C@@H](CO)C(=O)N[C@@H](CCC(=O)O)C(=O)N[C@H](C(=O)N1CCC[C@H]1C(N)=O)[C@@H](C)O)C(C)C)[C@@H](C)O)N(C)C(=O)[C@H](C)NC(=O)CN(C)C(=O)[C@H](Cc1ccccc1)NC(=O)[C@H](CO)NC(=O)[C@H](CO)NC(=O)[C@H](CO)NC(=O)[C@H](CO)NC(=O)[C@H](CCCNC(=N)N)NC(=O)[C@H](Cc1c[nH]cn1)NC(=O)[C@H](CC(C)C)NC(=O)[C@H](Cc1ccccc1)NC(=O)[C@H](CCC(=O)O)NC(=O)[C@H](C)NC(=O)[C@H](CC(C)C)NC(=O)[C@H](CCCNC(=N)N)NC(=O)[C@H](CO)NC(=O)[C@@H](NC(=O)[C@H](C)NC(=O)[C@@H]1CSSC[C@H](NC(=O)[C@H](CCCNC(=N)N)NC(=O)CC[C@H](NC(=O)CCCCCCCCCCCCCCCCCCC(=O)O)C(=O)O)C(=O)N[C@@H](CC(=O)O)C(=O)N[C@@H]([C@@H](C)O)C(=O)N[C@@H](C)C(=O)N[C@@H]([C@@H](C)O)C(=O)N1)[C@@H](C)O [Compound 138, [19CD]-isoGlu-RC()DTATC()ATSRLAEFLHRSSSSF-Gly(Me)-A-Ile(Me)-LSSTEVGSETP-NH2] ({C20 diacid-γGlu}-RCDTATCATSRLAEFLHRSSSSF[Sar]A[NMeI]LSSTEVGSETP-NH2; disulfide 2-7)
Solubility, Acetate buffer pH 4 [1]: SS (SS indicates solubility ≥ 1mg/ml) | Solubility, Acetate buffer pH 5 [1]: SS (SS indicates solubility ≥ 1mg/ml) | Solubility, Histidine buffer pH 6 [1]: SS (SS indicates solubility ≥ 1mg/ml) | Solubility, Histidine buffer pH 7 [1]: SS (SS indicates solubility ≥ 1mg/ml) | Solubility, Phosphate buffer pH 6 [1]: SS (SS indicates solubility ≥ 1mg/ml) | Solubility, Phosphate buffer pH 7 [1]: SS (SS indicates solubility ≥ 1mg/ml) | Solubility, Phosphate buffer pH 7.5 [1]: SS (SS indicates solubility ≥ 1mg/ml) | EC50 [2, 4]: 0.34 nM | EC50 [3, 5]: 0.23 nM
